Reference: ChEMBL document CHEMBL3745709, “Synthesis of novel ethyl 1-ethyl-6-fluoro-7-(fatty amido)-1,4-dihydro-4-oxoquinoline-3-carboxylate derivatives and their biological evaluation” (Bioorg Med Chem Lett, 2016)
≈ marks a conversion by molar mass, not a printed value.

Experiments:
[1] = system: Pichia sporocuriosa; assay: Fungicidal activity against Issatchenkia hanoiensis MTCC 4755 assessed as microbial killing after 24 hrs; type: functional; conditions: MTCC 4755, 24 h
[2] = system: Bacillus subtilis; assay: Antibiofilm activity against Bacillus subtilis MTCC 121 after 24 hrs by crystal violet staining method; type: functional, organism-based; conditions: MTCC 121, 24 h
[3] = system: Staphylococcus aureus; assay: Antibiofilm activity against Staphylococcus aureus MTCC 96 after 24 hrs by crystal violet staining method; type: functional, organism-based; conditions: MTCC 96, 24 h
[4] = Cytotoxicity against human DU145 cells assessed as reduction in cell viability by MTT assay; type: functional, cell-based; conditions: DU-145
[5] = system: A549; assay: Cytotoxicity against human A549 cells assessed as reduction in cell viability by MTT assay; type: functional, cell-based
[6] = Cytotoxicity against human SKOV3 cells assessed as reduction in cell viability by MTT assay; type: functional, cell-based; conditions: SK-OV-3
[7] = system: MCF7; assay: Cytotoxicity against human MCF7 cells assessed as reduction in cell viability by MTT assay; type: functional, cell-based
[8] = Cytotoxicity against human IMR90 cells assessed as reduction in cell viability by MTT assay; type: cell-based; conditions: IMR-90
[9] = system: IMR-90; assay: Selectivity index, ratio of IC50 for human IMR90 cells to IC50 for human DU145 cells; type: functional
[10] = system: A549; assay: Selectivity index, ratio of IC50 for human IMR90 cells to IC50 for human A549 cells; type: functional
[11] = system: SK-OV-3; assay: Selectivity index, ratio of IC50 for human IMR90 cells to IC50 for human SKOV3 cells; type: functional
[12] = system: IMR-90; assay: Selectivity index, ratio of IC50 for human IMR90 cells to IC50 for human MCF7 cells; type: functional
[13] = Antioxidant activity assessed as DPPH free radical scavenging activity; type: physicochemical
[14] = system: Micrococcus luteus; assay: Antibacterial activity against Micrococcus luteus MTCC 2470 assessed as inhibition zone after 24 hrs at 30 degC by well diffusion method; type: functional; conditions: MTCC 2470, 24 h
[15] = system: Staphylococcus aureus; assay: Antibacterial activity against Staphylococcus aureus MTCC 96 […] after 24 hrs at 30 degC by well diffusion method; type: functional; conditions: MTCC 96, 24 h
[16] = system: Staphylococcus aureus; assay: Antibacterial activity against Staphylococcus aureus MLS-16 MTCC 2940 assessed as inhibition zone after 24 hrs at 30 degC by well diffusion method; type: functional; conditions: MLS-16 MTCC 2940, 24 h
[17] = system: Bacillus subtilis; assay: Antibacterial activity against Bacillus subtilis MTCC 121 assessed as inhibition zone after 24 hrs at 30 degC by well diffusion method; type: functional; conditions: MTCC 121, 24 h
[18] = system: Escherichia coli; assay: Antibacterial activity against Escherichia coli MTCC 739 assessed as inhibition zone after 24 hrs at 30 degC by well diffusion method; type: functional; conditions: MTCC 739, 24 h
[19] = system: Pseudomonas aeruginosa; assay: Antibacterial activity against Pseudomonas aeruginosa MTCC 2453 assessed as inhibition zone after 24 hrs at 30 degC by well diffusion method; type: functional; conditions: MTCC 2453, 24 h
[20] = system: Raoultella planticola; assay: Antibacterial activity against Klebsiella planticola MTCC 530 assessed as inhibition zone after 24 hrs at 30 degC by well diffusion method; type: functional; conditions: MTCC 530, 24 h
[21] = system: Candida albicans; assay: Antifungal activity against Candida albicans MTCC 3017 […] after 24 hrs at 30 degC by well diffusion method; type: functional; conditions: MTCC 3017, 24 h
[22] = system: Bacillus subtilis; assay: Bactericidal activity against Bacillus subtilis MTCC 121 assessed as microbial killing after 24 hrs; type: functional; conditions: MTCC 121, 24 h
[23] = system: Staphylococcus aureus; assay: Bactericidal activity against Staphylococcus aureus MTCC 96 assessed as microbial killing after 24 hrs; type: functional; conditions: MTCC 96, 24 h
[24] = system: Staphylococcus aureus; assay: Bactericidal activity against Staphylococcus aureus MLS-16 MTCC 2940 assessed as microbial killing after 24 hrs; type: functional; conditions: MLS-16 MTCC 2940, 24 h
[25] = system: Escherichia coli; assay: Bactericidal activity against Escherichia coli MTCC 739 assessed as microbial killing after 24 hrs; type: functional; conditions: MTCC 739, 24 h
[26] = system: Candida albicans; assay: Antifungal activity against Candida albicans MTCC 183 assessed as inhibition zone after 24 hrs at 30 degC by well diffusion method; type: functional; conditions: MTCC 183, 24 h
[27] = system: Candida albicans; assay: Antifungal activity against Candida albicans MTCC 227 assessed as inhibition zone after 24 hrs at 30 degC by well diffusion method; type: functional; conditions: MTCC 227, 24 h
[28] = system: Candida albicans; assay: Antifungal activity against Candida albicans MTCC 854 assessed as inhibition zone after 24 hrs at 30 degC by well diffusion method; type: functional; conditions: MTCC 854, 24 h
[29] = system: Candida albicans; assay: Antifungal activity against Candida albicans MTCC 1637 assessed as inhibition zone after 24 hrs at 30 degC by well diffusion method; type: functional; conditions: MTCC 1637, 24 h
[30] = system: Candida albicans; assay: Antifungal activity against Candida albicans MTCC 3018 assessed as inhibition zone after 24 hrs at 30 degC by well diffusion method; type: functional; conditions: MTCC 3018, 24 h
[31] = system: Candida albicans; assay: Antifungal activity against Candida albicans MTCC 3958 assessed as inhibition zone after 24 hrs at 30 degC by well diffusion method; type: functional; conditions: MTCC 3958, 24 h
[32] = system: Candida albicans; assay: Antifungal activity against Candida albicans MTCC 4748 assessed as inhibition zone after 24 hrs at 30 degC by well diffusion method; type: functional; conditions: MTCC 4748, 24 h
[33] = system: Candida albicans; assay: Antifungal activity against Candida albicans MTCC 7315 assessed as inhibition zone after 24 hrs at 30 degC by well diffusion method; type: functional; conditions: MTCC 7315, 24 h
[34] = system: Candida parapsilosis; assay: Antifungal activity against Candida parapsilosis MTCC 1744 assessed as inhibition zone after 24 hrs at 30 degC by well diffusion method; type: functional; conditions: Lodderomyces parapsilosis, MTCC 1744, 24 h
[35] = system: [Candida] aaseri; assay: Antifungal activity against Candida aaseri MTCC 1962 assessed as inhibition zone after 24 hrs at 30 degC by well diffusion method; type: functional; conditions: Yamadazyma aaseri, MTCC 1962, 24 h
[36] = system: Nakaseomyces glabratus; assay: Antifungal activity against Candida glabrata MTCC 3019 assessed as inhibition zone after 24 hrs at 30 degC by well diffusion method; type: functional; conditions: MTCC 3019, 24 h
[37] = system: Pichia kudriavzevii; assay: Antifungal activity against Candida krusei MTCC 3020 assessed as inhibition zone after 24 hrs at 30 degC by well diffusion method; type: functional; conditions: MTCC 3020, 24 h
[38] = system: Pichia sporocuriosa; assay: Antifungal activity against Issatchenkia hanoiensis MTCC 4755 assessed as inhibition zone after 24 hrs at 30 degC by well diffusion method; type: functional; conditions: MTCC 4755, 24 h
[39] = system: Candida albicans; assay: Fungicidal activity against Candida albicans MTCC 183 assessed as microbial killing after 24 hrs; type: functional; conditions: MTCC 183, 24 h
[40] = system: Candida albicans; assay: Fungicidal activity against Candida albicans MTCC 227 assessed as microbial killing after 24 hrs; type: functional; conditions: MTCC 227, 24 h
[41] = system: Candida albicans; assay: Fungicidal activity against Candida albicans MTCC 854 assessed as microbial killing after 24 hrs; type: functional; conditions: MTCC 854, 24 h
[42] = system: Candida albicans; assay: Fungicidal activity against Candida albicans MTCC 1637 assessed as microbial killing after 24 hrs; type: functional; conditions: MTCC 1637, 24 h
[43] = system: Candida albicans; assay: Fungicidal activity against Candida albicans MTCC 3017 assessed as microbial killing after 24 hrs; type: functional; conditions: MTCC 3017, 24 h
[44] = system: Candida albicans; assay: Fungicidal activity against Candida albicans MTCC 3018 assessed as microbial killing after 24 hrs; type: functional; conditions: MTCC 3018, 24 h
[45] = system: Candida albicans; assay: Fungicidal activity against Candida albicans MTCC 3958 assessed as microbial killing after 24 hrs; type: functional; conditions: MTCC 3958, 24 h
[46] = system: Candida albicans; assay: Fungicidal activity against Candida albicans MTCC 4748 assessed as microbial killing after 24 hrs; type: functional; conditions: MTCC 4748, 24 h
[47] = system: Candida albicans; assay: Fungicidal activity against Candida albicans MTCC 7315 assessed as microbial killing after 24 hrs; type: functional; conditions: MTCC 7315, 24 h
[48] = system: Candida parapsilosis; assay: Fungicidal activity against Candida parapsilosis MTCC 1744 assessed as microbial killing after 24 hrs; type: functional; conditions: Lodderomyces parapsilosis, MTCC 1744, 24 h
[49] = system: [Candida] aaseri; assay: Fungicidal activity against Candida aaseri MTCC 1962 assessed as microbial killing after 24 hrs; type: functional; conditions: Yamadazyma aaseri, MTCC 1962, 24 h
[50] = system: Nakaseomyces glabratus; assay: Fungicidal activity against Candida glabrata MTCC 3019 assessed as microbial killing after 24 hrs; type: functional; conditions: MTCC 3019, 24 h
[51] = system: Pichia kudriavzevii; assay: Fungicidal activity against Candida krusei MTCC 3020 assessed as microbial killing after 24 hrs; type: functional; conditions: MTCC 3020, 24 h
[52] = system: Staphylococcus aureus; assay: Antibiofilm activity against Staphylococcus aureus MLS-16 MTCC 2940 after 24 hrs by crystal violet staining method; type: functional, organism-based; conditions: MLS-16 MTCC 2940, 24 h
[53] = system: Escherichia coli; assay: Antibiofilm activity against Escherichia coli MTCC 739 after 24 hrs by crystal violet staining method; type: functional, organism-based; conditions: MTCC 739, 24 h

CCCCCC(=O)Nc1cc2c(cc1F)c(=O)c(C(=O)OCC)cn2CC
MFC [1]: 62.5 µg/mL (≈ 166 µM)
IC50 [2]: 4.6 µg/mL (≈ 12.2 µM)
IC50 [3]: 2.1 µg/mL (≈ 5.58 µM)
IC50 [4]: 9.8 µM
IC50 [5]: 8.9 µM
IC50 [6]: 8.6 µM
IC50 [7]: 9.8 µM
IC50 [8]: 88.2 µM
Ratio IC50 [9]: 9
Ratio IC50 [10]: 9.9
Ratio IC50 [11]: 10.2
Ratio IC50 [12]: 9
EC50 [13]: 33.8 µg/mL (≈ 89.8 µM)
MIC [14]: > 125 µg/mL
MIC [15]: 3.9 µg/mL (≈ 10.4 µM)
MIC [16]: 15.6 µg/mL (≈ 41.4 µM)
MIC [17]: 7.8 µg/mL (≈ 20.7 µM)
MIC [18]: 15.6 µg/mL (≈ 41.4 µM)
MIC [19]: > 125 µg/mL
MIC [20]: > 125 µg/mL
MIC [21]: 31.2 µg/mL (≈ 82.9 µM)
MBC [22]: 7.8 µg/mL (≈ 20.7 µM)
MBC [23]: 7.8 µg/mL (≈ 20.7 µM)
MBC [24]: 31.2 µg/mL (≈ 82.9 µM)
MBC [25]: 31.2 µg/mL (≈ 82.9 µM)
MIC [26]: 15.6 µg/mL (≈ 41.4 µM)
MIC [27]: 62.5 µg/mL (≈ 166 µM)
MIC [28]: 31.2 µg/mL (≈ 82.9 µM)
MIC [29]: 31.2 µg/mL (≈ 82.9 µM)
MIC [30]: 62.5 µg/mL (≈ 166 µM)
MIC [31]: 31.2 µg/mL (≈ 82.9 µM)
MIC [32]: 31.2 µg/mL (≈ 82.9 µM)
MIC [33]: 31.2 µg/mL (≈ 82.9 µM)
MIC [34]: 31.2 µg/mL (≈ 82.9 µM)
MIC [35]: 31.2 µg/mL (≈ 82.9 µM)
MIC [36]: 31.2 µg/mL (≈ 82.9 µM)
MIC [37]: 62.5 µg/mL (≈ 166 µM)
MIC [38]: 31.2 µg/mL (≈ 82.9 µM)
MFC [39]: 31.2 µg/mL (≈ 82.9 µM)
MFC [40]: 125 µg/mL (≈ 332 µM)
MFC [41]: 62.5 µg/mL (≈ 166 µM)
MFC [42]: 62.5 µg/mL (≈ 166 µM)
MFC [43]: 62.5 µg/mL (≈ 166 µM)
MFC [44]: 62.5 µg/mL (≈ 166 µM)
MFC [45]: 62.5 µg/mL (≈ 166 µM)
MFC [46]: 62.6 µg/mL (≈ 166 µM)
MFC [47]: 31.2 µg/mL (≈ 82.9 µM)
MFC [48]: 62.5 µg/mL (≈ 166 µM)
MFC [49]: 62.5 µg/mL (≈ 166 µM)
MFC [50]: 31.2 µg/mL (≈ 82.9 µM)
MFC [51]: 62.5 µg/mL (≈ 166 µM)
IC50 [52]: 9.8 µg/mL (≈ 26 µM)
IC50 [53]: 8.7 µg/mL (≈ 23.1 µM)
